The test system of one experiment is CLP mice. Kind of experiment: Apoptosis of immune cells (TUNEL) in CLP mice. Type of experiment: in vivo, mouse. Here is the method:
First, a tissue embedded in paraffin was deparaffinized using a typical histological protocol, and performed digoxigenin-dUTP nick end labeling (TUNEL) analysis. Sections were permeated into the Triton X-100 at 4° C. for 2 minutes, and the sections were flooded in terminal deoxynucleotidyl transferase (TdT) and a TUNEL reagent at 37° C. for 60 minutes. A percentage of apoptotic cells (TUNEL-positive cells) was determined by counting 500 splenocytes under an optical microscope. Also, the tissue embedded in paraffin was deparaffinized using a typical histological protocol, and immunohistochemical analysis was performed on the microtomed sections of caspase-3 (Wang J. et al. 2001 Proc. Natl. Acad. Sci. USA 98:4038-43).
The defunctionalization of the major internal organs such as lungs was associated with the mortality after sepsis. A morphological change was observed by performing hematoxylin and eosin staining. […] Liver tissues from the CLP mice were necrotized to a higher extent, but the necrosis of the liver tissues was decreased by administration of Ac-PGP. […] Most of the apoptosis in the thymus or spleen of a CLP mouse was caused in the cortex of the thymus or spleen in which immature cells were populated. When compared with those of the sham or Ac-PGP mice, an important morphological change in apoptotic cells of the CLP mice is that small compact pyknosis containing multiple nuclear fragments were present in apoptotic lymphocytes (FIG. 7). […] The apoptosis of immune cells was also accompanied with sepsis.
The apoptosis of immune cells is associated with the mortality on sepsis. Here, the CLP was proven to remarkably increase apoptosis of splenocytes (FIG. 22). […] Apoptosis of lymphocytes was induced by activation of some major caspases including caspase-3. Therefore, not only the effect of Ac-PGP on activation of caspase-3 but also the effect of CLP activation by caspase-3 were examined (FIG. 23).

In the next experiment the test system is mouse neutrophils. Kind of experiment: Disinfection activity of mouse neutrophils phagocytizing E. coli. Type of experiment: cell-based. To be noted: Ac-PGP 0.1 to 100 nM for 20 minutes, FIG. 11. The procedure:
Mouse neutrophils were separated from peripheral blood using a Histopaque-1077 solution (Sigma) (Bae Y S et al. 2001 Blood. 97: 2854-2862). The neutrophils separated from normal mice were stimulated with various concentrations of Ac-PGP for 10 minutes in the presence of cytochalasin B (5 μM). To identify the role of mCXCR2, the neutrophils were pre-incubated in various concentrations of SB225002 or a vehicle (DMSO) for 30 minutes in a stationary environment, and Ac-PGP (20 μM) was added, and incubated for 10 minutes. H2O2 in a supernatant was measured using a H2O2 measurement kit (Molecular probe).
The disinfection activities of the neutrophils were measured according to a method disclosed by Yan et al. (Yan J J et al. 2004 Nat. Med. 10:161-167). The neutrophils were stationarily incubated at 37° C. for an hour on a 13 mm plastic cover slip in a 60 mm plastic culture dish. The non-attached cells were removed by PBS. The attached neutrophils were stationarily incubated for an hour with 10^6 opsonized E. coli cells. The non-phagocytized E. coli cells were washed, and the number of bacteria surviving in the neutrophils was determined before and after the E. coli cells were treated with various concentrations of Ac-PGP or vehicle for an hour. A percentage of the apoptosized bacteria was calculated as follows. […]

The next experiment concerns mouse splenocytes. Kind of experiment: Cytokine release from LPS-stimulated mouse splenocytes (ELISA). Type of experiment: cell-based. The procedure: Mouse splenocytes were positioned on an RPMI 1640 medium including 5% FBS in a 96-well plate, and maintained at 37° C. in a 5% CO2 incubator. Thereafter, the splenocytes were stationarily incubated with LPS (100 ng/ml) for 24 hours in the presence or absence of Ac-PGP. After 30 minutes, LPS was added to the cells and collected a cell-free supernatant, and then the supernatant was centrifuged, and TNF-α, IL-6 and IFN-γ were measured using ELISA (BD Biosciences Pharmingen). In regards to the effect of IFN-γ on production of pro-inflammatory cytokines induced by LPS, 5×10^5 cells/ml of the mouse splenocytes were stimulated with 100 ng/ml of LPS in the presence or absence IFN-γ (R&D) (at various concentrations of 1, 10, 100 and 1,000 IU/ml). Amounts of TNF-α and IL-6 were measured 20 hours after stationary incubation using ELISA (BD Biosciences Pharmingen).
An effect of the Ac-PGP on a pro-inflammatory cytokine in a peritoneal fluid by CLP was determined from 4 to 72 hours after the CLP. The CLP induced a remarkable increase in levels of pro-inflammatory cytokines (TNF-α, IL-1β and IL-6) within 24 hours (FIGS. 14 to 16). Injection of the Ac-PGP in a sepsis model by the CLP induced a remarkable change in levels of the cytokines. […] To evaluate an effect of the Ac-PGP on production of the pro-inflammatory cytokines by the LPS, in vitro production of TNF-α and IL-6 by the mouse splenocytes was evaluated. Direct release of the TNF-α and IL-6 from the mouse splenocytes by the LPS was suppressed by in vitro treatment with the Ac-PGP (FIGS. 17 and 18).
Since it was confirmed that the administration of the Ac-PGP improved in vivo production of IFN-γ, a direct effect of the Ac-PGP on production of IFN-γ by splenocytes was examined. […] Also, an effect of IFN-γ on production of the pro-inflammatory cytokines was also examined.
(An ELISA detects its analyte on a solid surface through an enzyme-linked reagent.)

For acetylated-Pro-Gly-Pro [Ac-PGP], the “apoptosis of the immune cells in the spleen” value in the experiment with CLP mice (CLP mice, FIG. 8) is “remarkably suppressed”. In the experiment on CLP mice (CLP mice, FIG. 9), the “apoptosis of the immune cells in the thymus” value is “remarkably suppressed”. For the same substance, in the experiment on CLP mice (CLP mice, FIG. 22), the apoptosis of splenocytes result is listed as “remarkably suppressed the apoptosis of splenocytes”. For the same substance, the “inhibitory effect of the apoptosis of splenocytes by Ac-PGP” value with CLP mice (IFN-γ-deficient CLP mice, FIG. 22) was “remarkably relieved”. The disinfection activity entry with mouse neutrophils is on record as “highly increased the disinfection activity in a dose-dependent manner”. Moreover, the “release of TNF-α by LPS” value with mouse splenocytes (LPS 100 ng/ml, 24 hours, FIG. 17) is “suppressed”. Further, the “release of IL-6 by LPS” value with mouse splenocytes (LPS 100 ng/ml, 24 hours, FIG. 18) is given as “suppressed”. For the same substance, the “production of IFN-γ by LPS” value with mouse splenocytes (LPS-stimulated splenocytes, FIG. 24) was “increased production of IFN-γ”.

The record behind these values is patent US8937038B2, “Composition containing peptide ligand that bonds with CXCR2 for treating infective and inflammatory diseases” (priority 2010, dated 2015).
